From patent publication US9271978B2 (Zenith Epigenetics Corp., priority 2012, dated 2016)

Key:
Parameters in all cases: key: Active: Compounds with an IC50 value less than 30 μM were deemed to be active.; Not Active: Compounds with an IC50 value less than 30 μM were deemed to be active
[1] = system: human AML MV-4-11 (CRL-9591) cells; experiment: Inhibition of cell proliferation in MV4-11 cells; format: cell-based; settings: human AML MV-4-11 cells, 72 h; active = IC50 <30 μM
Outline: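 Exponentially growing MV-4-11 cells (5×10^4/well) were treated immediately with two-fold dilutions of compound from 30 μM to 0.2 μM, in triplicate, for 72 h at 37° C, 5% CO2. Viability was measured by MTS absorbance at 490 nm after 3–4 h. Proliferation relative to DMSO after blank correction gave IC50.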

[2] = target: T1, second bromodomain of Brd2 (BRD2(2)) (Homo sapiens, UniProt P25440); experiment: Inhibition of tetra-acetylated histone H4 binding to Brd2 bromodomain 2 (TR-FRET); settings: tetra-acetylated histone H4 peptide, active = IC50 <30 μM
T1 construct: made in house; host or cells: E. coli BL21 (DE3)
T1 sequence (P25440 344-453 limits assumed): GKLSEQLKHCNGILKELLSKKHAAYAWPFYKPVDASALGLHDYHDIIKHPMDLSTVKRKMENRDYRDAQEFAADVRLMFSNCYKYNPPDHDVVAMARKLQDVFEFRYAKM
Outline: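 N-terminally His-tagged bromodomains (200 nM), expressed in E. coli, were incubated with biotinylated tetra-acetylated histone H4 peptide (25-50 nM), Eu-cryptate streptavidin and XL665 anti-His antibody in HEPES pH 7.4 buffer with KF, 0.2% DMSO, 2 h at room temperature. Inhibition read as decreased 665/620 nm TR-FRET; IC50 from dose-response curves.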

hMCP-1 mRNA = experiment: Inhibition of hMCP-1 mRNA transcription in human peripheral blood mononuclear cells; format: cell-based; settings: 3 h
Description: In this example, hMCP-1 mRNA in human peripheral blood mononuclear cells was quantitated to measure the transcriptional inhibition of hMCP-1 when treated with a compound of the present disclosure.
Human Peripheral Blood Mononuclear Cells were plated (1.0×10^5 cells per well) in a 96-well plate in 45 μL RPMI-1640 containing 10% FBS and penicillin/streptomycin. The cells were treated with the test compound (45 μL at 2× concentration), and then the cells were incubated at 37° C. for 3 h before the cells were harvested. At time of harvest, cells were transferred to V-bottom plates and centrifuged (800 rpm, 5 min). Spent media was removed and cell lysis solution (70 μL) was added the cells in each well and incubated for 5-10 min at room temperature, to allow for complete cell lysis and detachment. mRNA was then prepared using the “mRNA Catcher PLUS plate” (Invitrogen), according to the protocol supplied. After the last wash, as much wash buffer as possible was aspirated without allowing the wells to dry. Elution buffer (E3, 70 μL) was then added to each well. mRNA was then eluted by incubating the mRNA Catcher PLUS plate with Elution Buffer for 5 min at 68° C. and then immediately placing the plate on ice.
(§1) The eluted mRNA isolated was then used in a one-step quantitative real-time PCR reaction, using components of the Ultra Sense Kit together with Applied Biosystems primer-probe mixes. Real-time PCR data was analyzed, normalizing the Ct values for hMCP-1 to an internal control, prior to determining the fold induction of each unknown sample, relative to the control.

hIL-17 mRNA = experiment: Inhibition of hIL-17 mRNA transcription in human peripheral blood mononuclear cells; format: cell-based; settings: OKT3 antibody stimulation
Description: In this example, hIL-17 mRNA in human peripheral blood mononuclear cells was quantitated to measure the transcriptional inhibition of hIL-17 when treated with a compound of the invention.
Human peripheral blood mononuclear cells were plated (2.0×10^5 cells per well) in a 96-well plate in 45 μL OpTimizer T Cell expansion media containing 20 ng/ml IL-2 and penicillin/streptomycin. The cells were treated with the test compound (45 μL. at 2× concentration), and then the cells were incubated at 37° C. for 1 h before addition of 10× stock OKT3 antibody at 10 ug/ml in media. Cells were incubated at 37° C. for 3 h before the cells were harvested. At time of harvest, cells were centrifuged (800 rpm, 5 min). Spent media was removed and cell lysis solution (70 μL) was added the cells in each well and incubated for 5-10 min at room temperature, to allow for complete cell lysis and detachment. mRNA was then prepared using the “mRNA Catcher PLUS plate” (Invitrogen), according to the protocol supplied. After the last wash, as much wash buffer as possible was aspirated without allowing the wells to dry. Elution buffer (E3, 70 μL) was then added to each well. mRNA was then eluted by incubating the mRNA Catcher PLUS plate with Elution Buffer for 5 min at 68° C. and then immediately placing the plate on ice.
as §1, with “hIL-17” for “hMCP-1”

Cell Proliferation activity (IC50 <30 μM) [1]	FRET activity (IC50 <30 μM) BRD2(2) [2]	MCP-1 activity (IC50 < 30 μM) (hMCP-1 mRNA)	IL-17 activity (IC50 < 30 μM) (hIL-17 mRNA)	Compound
Active	Active	Active	–	Cc1noc(C)c1-c1ccc(=O)n([C@H](C)c2ccccc2)c1 [Example 134, (R)-5-(3,5-Dimethylisoxazol-4-yl)-1-(1-phenylethyl)pyridin-2(1H)-one]
Active	Active	Active	–	Cc1noc(C)c1-c1ccc(=O)n(Cc2ccccc2)c1 [Example 56, 1-Benzyl-5-(3,5-dimethylisoxazol-4-yl)pyridin-2(1H)-one]
Active	Active	Active	–	Cc1noc(C)c1-c1cc(N)c(=O)n(Cc2ccccc2)c1 [Example 73, 3-Amino-1-benzyl-5-(3,5-dimethylisoxazol-4-yl)pyridin-2(1H)-one]
Active	Active	Active	Active	Cc1noc(C)c1-c1ccc(=O)n(Cc2ccc(Cl)cc2)c1 [Example 128, 1-(4-Chlorobenzyl)-5-(3,5-dimethylisoxazol-4-yl)pyridin-2(1H)-one]
Active	–	–	Active	Cc1noc(C)c1-c1cc(N)c(=O)n(Cc2ccc(Br)cc2)c1 [Example 241, 3-Amino-1-(4-bromobenzyl)-5-(3,5-dimethylisoxazol-4-yl)pyridin-2(1H)-one]
Active	–	–	Active	Cc1noc(C)c1-c1cc(N)c(=O)n(Cc2ccsc2)c1 [Example 219, 3-amino-5-(3,5-dimethylisoxazol-4-yl)-1-(thiophen-3-ylmethyl)pyridin-2(1H)-one]
Active	–	–	Active	Cc1noc(C)c1-c1cc(N)c(=O)n(Cc2ccc(F)cc2)c1 [Example 180, 3-amino-5-(3,5-dimethylisoxazol-4-yl)-1-(4-fluorobenzyl)pyridin-2(1H)-one]
